Assay results reported in patent publication US11547681B2, “N-acylethanolamide derivatives and uses thereof” (ELIEM THERAPEUTICS, INC., priority 2016, dated 2023).
Values belong to the molecule of their own block, whether it stands above or below them.

Experiment: in vitro
Conditions: for Measured concentration of analyte PEA, 0 min / Measured concentration of analyte PEA, 10 min / Measured concentration of analyte PEA, 20 min / Measured concentration of analyte PEA, 30 min / Measured concentration of analyte PEA, 60 min / % Remaining of Initial, 0 min / % Remaining of Initial, 10 min / % Remaining of Initial, 20 min / % Remaining of Initial, 30 min / % Remaining of Initial, 60 min / Concentration of analyte I-9 / Concentration of analyte PEA / % Remaining of Initial (n = 1) / Measured concentration of PEA (analyte) / % Remaining of Initial: 1 μM; for % Remaining of Initial, 0 min / % Remaining of Initial, 10 min / % Remaining of Initial, 20 min / % Remaining of Initial, 30 min / % Remaining of Initial, 60 min / microsomal CLint at 1 μM / half-life at 1 μM / % Remaining of Initial (n = 1) / % Remaining of Initial: microsomes
Protocol: The reaction mixture, minus cofactors, was prepared as described below. The test article was added into the reaction mixture at a final concentration of 1 μM. […] An aliquot of the reaction mixture (without cofactor) was equilibrated in a shaking water bath at 37° C. for 3 minutes. The reaction was initiated by the addition of cofactor, and the mixture was incubated in a shaking water bath at 37° C. Aliquots (100 μL) were withdrawn at 0, 10, 20, 30, and 60 minutes. All samples were immediately combined with 400 μL of ice-cold 50/50 acetonitrile/H2O containing 0.1% formic acid and internal standard to terminate the reaction. The samples were then mixed and centrifuged to precipitate proteins. Calibration standards were prepared in matched matrix. All samples and standards were assayed by LC-MS/MS using electrospray ionization for both the dosed prodrug I-9 and the expected drug (PEA). Analytical conditions are outlined in Appendix 4-1. The test article concentration at each time point was compared to the test article concentration at time 0 to determine the percent remaining at each time point. Half-lives were calculated using GraphPad software, fitting to a single-phase exponential decay equation.
Reaction mixture, minus cofactors, was prepared as described below. Test article was added into the reaction mixture at a final concentration of 1 μM. […] An aliquot of the reaction mixture (without cofactor) was equilibrated in a shaking water bath at 37° C. for 3 minutes. The reaction was initiated by the addition of cofactor, and the mixture was incubated in a shaking water bath at 37° C. Aliquots (100 μL) were withdrawn at 0, 10, 20, 30, and 60 minutes. Test article samples were immediately combined with 300 μL of ice-cold acetonitrile containing 1% formic acid. Control samples were immediately combined with 400 μL of ice-cold 50/50 acetonitrile (ACN)/dH2O containing 0.1% formic acid and internal standard to terminate the reaction. Samples were then mixed and centrifuged to precipitate proteins. Calibration standards were prepared in matched matrix. Samples and standards were assayed by LC-MS/MS using electrospray ionization for both dosed prodrug and expected drug (PEA). Analytical conditions are outlined in Appendix 8-1. Test article concentration at each time point was compared to test article concentration at time 0 to determine the percent remaining at each time point. Half-lives were calculated using GraphPad software, fitting to a single-phase exponential decay equation.
Reaction mixture, minus cofactors, was prepared as described below. Test article was added into the reaction mixture at a final concentration of 1 μM. […] An aliquot of the reaction mixture (without cofactor) was equilibrated in a shaking water bath at 37° C. for 5 minutes. Reaction was initiated by the addition of cofactor, and the mixture was incubated in a shaking water bath at 37° C. Aliquots (100 μL) were withdrawn at 0, 10, 20, 30, and 60 minutes. Test article samples were immediately combined with 300 μL of ice-cold acetonitrile containing 1% formic acid. Control samples were immediately combined with 400 μL of ice-cold 50/50 acetonitrile (ACN)/dH2O containing 0.1% formic acid and internal standard to terminate the reaction. Samples were then mixed and centrifuged to precipitate proteins. Calibration standards were prepared in matched matrix. Samples and standards were assayed by LC-MS/MS using electrospray ionization for both the dosed prodrug and the expected drug (PEA). Analytical conditions are outlined in Appendix 10-1. Test article concentration at each time point was compared to the test article concentration at time 0 to determine the percent remaining at each time point. Half-lives were calculated using GraphPad software, fitting to a single-phase exponential decay equation.
Reaction mixture, minus cofactors, was prepared as described below. Test article was added into the reaction mixture at a final concentration of 1 μM.

[1] = male, Sprague-Dawley, rat, 0 min
[2] = male, Sprague-Dawley, rat, 10 min
[3] = male, Sprague-Dawley, rat, 20 min
[4] = male, Sprague-Dawley, rat, 30 min
[5] = male, Sprague-Dawley, rat, 60 min
[6] = male, Sprague-Dawley, rat, 0.5 h
[7] = male, Sprague-Dawley, rat, Half-life
[8] = both, human, calculated value in parentheses
[9] = both, human, Half-life, calculated value in parentheses
[10] = male, Sprague-Dawley, rat, calculated value in parentheses
[11] = male, Sprague-Dawley, rat, Half-life, calculated value in parentheses

Measured concentration of analyte PEA, 0 min (both, human, 0 min): 0.22 µM
Measured concentration of analyte PEA, 10 min (both, human, 10 min): 0.39 µM
Measured concentration of analyte PEA, 20 min (both, human, 20 min): 0.28 µM
Measured concentration of analyte PEA, 30 min (both, human, 30 min): 0.22 µM
Measured concentration of analyte PEA, 60 min (both, human, 60 min): 0.080 µM
% Remaining of Initial, 0 min (both, human, 0 h): 100%
% Remaining of Initial, 10 min (both, human, 10 min): 4.6%
% Remaining of Initial, 20 min (both, human, 20 min): 1.3%
% Remaining of Initial, 30 min (both, human, 0.5 h): <1.0%
% Remaining of Initial, 60 min (both, human, 1 h): <1.0%
microsomal CLint at 1 μM (both, human): 612 µL/min/mg
half-life at 1 μM (both, human, Half-life): 2.3 min
Measured concentration of analyte PEA, 0 min [1]: 0.054 µM
Measured concentration of analyte PEA, 10 min [2]: 0.14 µM
Measured concentration of analyte PEA, 20 min [3]: 0.087 µM
Measured concentration of analyte PEA, 30 min [4]: 0.045 µM
Measured concentration of analyte PEA, 60 min [5]: 0.0085 µM
% Remaining of Initial, 0 min (male, Sprague-Dawley, rat, 0 h): 100%
% Remaining of Initial, 10 min [2]: 45%
% Remaining of Initial, 20 min [3]: 17%
% Remaining of Initial, 30 min [6]: 11%
% Remaining of Initial, 60 min (male, Sprague-Dawley, rat, 1 h): 2.1%
microsomal CLint at 1 μM (male, Sprague-Dawley, rat): 164 µL/min/mg
half-life at 1 μM [7]: 8.5 min
Structure (SMILES): CCCCCCCCCCCCCCCC(=O)NCCOC(=O)CCC(=O)OC[C@H]1O[C@@](CO)(O[C@H]2O[C@H](CO)[C@@H](O)[C@H](O)[C@H]2O)[C@@H](O)[C@@H]1O [Compound I-7]

Concentration of analyte I-9 (both, human, 0 min): 180 nM
Concentration of analyte PEA (both, human, 0 min): 830 nM
Measured concentration of analyte PEA, 0 min (both, human, 0 min): 0.47 µM
Concentration of analyte I-9 (both, human, 10 min): 2.1 nM
Concentration of analyte PEA (both, human, 10 min): 600 nM
Measured concentration of analyte PEA, 10 min (both, human, 10 min): 0.39 µM
Concentration of analyte I-9 (both, human, 20 min): 0 nM
Concentration of analyte PEA (both, human, 20 min): 510 nM
Measured concentration of analyte PEA, 20 min (both, human, 20 min): 0.22 µM
Concentration of analyte I-9 (both, human, 30 min): 0 nM
Concentration of analyte PEA (both, human, 30 min): 410 nM
Measured concentration of analyte PEA, 30 min (both, human, 30 min): 0.16 µM
Concentration of analyte I-9 (both, human, 60 min): 0 nM
Concentration of analyte PEA (both, human, 60 min): 200 nM
Measured concentration of analyte PEA, 60 min (both, human, 60 min): 0.058 µM
% Remaining of Initial (n = 1) (both, human, 0 h): 100%
% Remaining of Initial, 0 min (both, human, 0 h): 100%
% Remaining of Initial (n = 1) (both, human, 10 min): 1.2%
% Remaining of Initial, 10 min (both, human, 10 min): <1.0%
% Remaining of Initial (n = 1) (both, human, 20 min): <1.0%
% Remaining of Initial, 20 min (both, human, 20 min): <1.0%
% Remaining of Initial (n = 1) (both, human, 0.5 h): <1.0%
% Remaining of Initial, 30 min (both, human, 0.5 h): <1.0%
% Remaining of Initial (n = 1) (both, human, 1 h): <1.0%
% Remaining of Initial, 60 min (both, human, 1 h): <1.0%
microsomal CLint at 1 μM [8]: 888 µL/min/mg
half-life at 1 μM (both, human, Half-Life): < 10 min
half-life at 1 μM (both, human, Half-life): < 1 min
half-life at 1 μM [9]: 1.6 min
Concentration of analyte I-9 [1]: 210 nM
Concentration of analyte PEA [1]: 350 nM
Measured concentration of analyte PEA, 0 min [1]: 0.22 µM
Concentration of analyte I-9 [2]: 8.5 nM
Concentration of analyte PEA [2]: 160 nM
Measured concentration of analyte PEA, 10 min [2]: 0.066 µM
Concentration of analyte I-9 [3]: 0 nM
Concentration of analyte PEA [3]: 76 nM
Measured concentration of analyte PEA, 20 min [3]: 0.017 µM
Concentration of analyte I-9 [4]: 0 nM
Concentration of analyte PEA [4]: 27 nM
Measured concentration of analyte PEA, 30 min [4]: 0 µM
Concentration of analyte I-9 [5]: 0 nM
Concentration of analyte PEA [5]: 3 nM
Measured concentration of analyte PEA, 60 min [5]: 0 µM
% Remaining of Initial (n = 1) (male, Sprague-Dawley, rat, 0 h): 100%
% Remaining of Initial, 0 min (male, Sprague-Dawley, rat, 0 h): 100%
% Remaining of Initial (n = 1) [2]: 4.0%
% Remaining of Initial, 10 min [2]: 1.9%
% Remaining of Initial (n = 1) [3]: <1.0%
% Remaining of Initial, 20 min [3]: <1.0%
% Remaining of Initial (n = 1) [6]: <1.0%
% Remaining of Initial, 30 min [6]: <1.0%
% Remaining of Initial (n = 1) (male, Sprague-Dawley, rat, 1 h): <1.0%
% Remaining of Initial, 60 min (male, Sprague-Dawley, rat, 1 h): <1.0%
microsomal CLint at 1 μM [10]: 642 µL/min/mg
half-life at 1 μM (male, Sprague-Dawley, rat, Half-Life): < 10 min
half-life at 1 μM [7]: 1.8 min
half-life at 1 μM [11]: 2.2 min
Structure (SMILES): CCCCCCCCCCCCCCCC(=O)NCCOC(=O)CCC(=O)OCC(O)CO (centres unmarked) [Compound I-9]

Measured concentration of PEA (analyte) (both, human, 0 min): 0 µM
Measured concentration of PEA (analyte) (both, human, 10 min): 0.22 µM
Measured concentration of PEA (analyte) (both, human, 20 min): 0.15 µM
Measured concentration of PEA (analyte) (both, human, 30 min): 0.14 µM
Measured concentration of PEA (analyte) (both, human, 60 min): 0.069 µM
% Remaining of Initial (both, human, 0 h): 100%
% Remaining of Initial (both, human, 10 min): 8.0%
% Remaining of Initial (both, human, 20 min): 3.5%
% Remaining of Initial (both, human, 0.5 h): 1.9%
% Remaining of Initial (both, human, 1 h): <1.0%
microsomal CLint at 1 μM (both, human): > 139 µL/min/mg
microsomal CLint at 1 μM [8]: 493 µL/min/mg
half-life at 1 μM (both, human, Half-life): < 10 min
half-life at 1 μM [9]: 2.8 min
Measured concentration of PEA (analyte) [1]: 0.025 µM
Measured concentration of PEA (analyte) [2]: 0.033 µM
Measured concentration of PEA (analyte) [3]: 0.015 µM
Measured concentration of PEA (analyte) [4]: 0 µM
Measured concentration of PEA (analyte) [5]: 0 µM
% Remaining of Initial (male, Sprague-Dawley, rat, 0 h): 100%
% Remaining of Initial [2]: 9.7%
% Remaining of Initial [3]: 4.2%
% Remaining of Initial [6]: 3.1%
% Remaining of Initial (male, Sprague-Dawley, rat, 1 h): <1.0%
microsomal CLint at 1 μM (male, Sprague-Dawley, rat): > 139 µL/min/mg
microsomal CLint at 1 μM [10]: 452 µL/min/mg
half-life at 1 μM [7]: < 10 min
half-life at 1 μM [11]: 3.1 min
Structure (SMILES): CCCCCCCCCCCCCCCC(=O)NCCOC(=O)CCC(=O)OC(COC(=O)CCC)COC(=O)CCC [Compound I-16]
